Reference: patent US20250326792A1, “A FORMULATION FOR TREATMENT OF PIGMENTARY DISORDERS” (priority 2022, published 2025)
PHPP = 3-Phenylpyrazolo[3,4-d]pyrimidine (N-terminal cap)

What was measured:
NHEM cells = assay: Cell viability (XTT assay) in NHEM cells; format: cell-based, Human; settings: 1000 μg/ml for about 48 hours
Protocol: (§1) Culture and maintenance of cell lines: B16F10 cells were cultured in RPMI containing 10% fetal bovine serum, 100 units per millilitre (U/mL) penicillin, 0.1 mg/mL streptomycin, and 0.25 microgram per millilitre (μg/mL) amphotericin B at 37 degrees Celsius in a humidified 95% air/5% CO2 incubator. Drug treatment was done 24 hours after seeding. Cells were harvested 48 hours later and melanin content and tyrosinase activity determined in triplicate. […] […]
(§2) B16F10 and NHEM cells were sub-cultured into 96-well culture plates at a density of 1×10^4 cells/well in 100 μL medium and after about 24 hours of incubation, the medium was discarded and replaced with 100 μL of a suitable medium (RPMI for B16F10 and DMEM for NHEM with 1% FBS) for starvation and then treated in the presence or absence of various concentrations of test compound and positive controls (IBMX and α-MSH). […] At the end of the incubation, about 50 μL of XTT test solution prepared by mixing about 5 mL of XTT-labeling reagent and about 100 μL of electron coupling reagent is added to each well and after about 4 hours of incubation at 37° C. and a about 5% CO2 incubator, the absorbance was measured on an ELISA reader at a test wavelength of 490 nm.

B16F10 cells = assay: Cell viability (XTT assay) in B16F10 cells; format: cell-based; settings: 1000 μg/ml for about 48 hours
Protocol: as §1, §2

[1] = Solubility of synthetic peptide IS103; format: physicochemical
Tyrosinase = Tyrosinase activity assay (L-DOPA) in NHEM cells; format: cell-based, Human; settings: for % increase in tyrosinase activity compared to control / Tyrosinase activity: TYROSINASE ACTIVITY table
Protocol: Culture and maintenance of cell lines: B16F10 cells were cultured in RPMI containing 10% fetal bovine serum, 100 units per millilitre (U/mL) penicillin, 0.1 mg/mL streptomycin, and 0.25 microgram per millilitre (μg/mL) amphotericin B at 37 degrees Celsius in a humidified 95% air/5% CO2 incubator. Drug treatment was done 24 hours after seeding. Cells were harvested 48 hours later and melanin content and tyrosinase activity determined in triplicate. NHEM cells were cultured in DMEM containing 10% fetal bovine serum, 100 units per milliliter (U/mL) penicillin, 0.1 mg/mL streptomycin, and 0.25 microgram per millilitre (μg/mL) amphotericin B at 37 degrees Celsius in a humidified 95% air/5% CO2 incubator. Drug treatment was done 24 hours after seeding. Cells were harvested 48 hours later and melanin content and tyrosinase activity determined in triplicate.
IS103 was dissolved in water for injection or DMSO to prepare stock solution of about 50 mg/ml. The stock solution was used for preparation of subsequent dilutions in solvent to achieve working dilutions for treatment ranging 0.1 μg/ml to 1000 μg/ml.
Tyrosinase activity was determined using L-DOPA as a substrate. Briefly, B16F10 and NHEM cells were seeded in a 6-well plate (2×10^4 cells/well) and incubated for overnight. The cells were then treated with or without the test compounds for 46 hours and were washed twice with ice cold PBS and extracted by sonication in 100 μl of 0.1M Tris-HCl buffer (pH 7.2) containing 1% Nonidet P-40, 0.01% SDS, 100 μM phenyl methyl sulfonyl fluoride, and 1 μg/ml aprotinin and then centrifuged at 10,000 g for about 10 minutes at 4° C. The supernatants collected were used for enzyme assay and its protein content was estimated by method of Bradford using BSA as standard. Samples of cell extract supernatant were incubated in duplicate for 1 hour at 37° C. in 1 ml of 0.1M sodium phosphate buffer (pH 7.4) containing 0.1% L-DOPA. The absorbance was then monitored at 450 nm and compared with purified mushroom tyrosinase (Sigma). The standard curve was prepared limiting linearity within the range of experimental value.

Substance: PHPP-Tyr-Arg-Ser-Arg-Lys-Tyr-Ser-Ser-Trp-Tyr-NH2 ({PHPP}-YRSRKYSSWY-NH2) [IS103]
- effect on cell viability (NHEM cells): did not exert any significant effect on cell viability
- effect on cell viability (B16F10 cells): did not exert any significant effect on cell viability
- Solubility [1]: soluble in water
- increase in Tyrosinase activity when compared to control (Tyrosinase; NHEM CELLS, 250 μg/mL): 55.67%
- effect on tyrosinase activity (FIG. 7) (Tyrosinase; NHEM cells, different concentrations, about 48 hours): increased tyrosinase activity
- % increase in tyrosinase activity compared to control (Tyrosinase; NHEM CELLS, 0.1 μg/mL): −0.67%
- Tyrosinase activity (Tyrosinase; NHEM CELLS, 0.1 μg/mL): 13.7 ± 1.24
- % increase in tyrosinase activity compared to control (Tyrosinase; NHEM CELLS, 1 μg/mL): 3.67%
- Tyrosinase activity (Tyrosinase; NHEM CELLS, 1 μg/mL): 18.0 ± 3.30
- % increase in tyrosinase activity compared to control (Tyrosinase; NHEM CELLS, 10 μg/mL): 10.67%
- Tyrosinase activity (Tyrosinase; NHEM CELLS, 10 μg/mL): 25.0 ± 0.80
- % increase in tyrosinase activity compared to control (Tyrosinase; NHEM CELLS, 50 μg/mL): 22.67%
- Tyrosinase activity (Tyrosinase; NHEM CELLS, 50 μg/mL): 37.0 ± 3.00
- % increase in tyrosinase activity compared to control (Tyrosinase; NHEM CELLS, 100 μg/mL): 45.33%
- Tyrosinase activity (Tyrosinase; NHEM CELLS, 100 μg/mL): 59.7 ± 1.90
- % increase in tyrosinase activity compared to control (Tyrosinase; NHEM CELLS, 250 μg/mL): 55.67%
- Tyrosinase activity (Tyrosinase; NHEM CELLS, 250 μg/mL): 70.0 ± 2.20
- % increase in tyrosinase activity compared to control (Tyrosinase; NHEM CELLS, 500 μg/mL): 61%
- Tyrosinase activity (Tyrosinase; NHEM CELLS, 500 μg/mL): 75.3 ± 2.50
- % increase in tyrosinase activity compared to control (Tyrosinase; NHEM CELLS, 1000 μg/mL): 61%
- Tyrosinase activity (Tyrosinase; NHEM CELLS, 1000 μg/mL): 75.3 ± 2.60
